Experiment in all cases: biochemical
Holding throughout (parameters): KINOMEscan competition binding panel (Eurofins DiscoverX), single concentration, % inhibition
Holding throughout (details): read-out: 7 at 1 µM % inhibition

Experiment [1] deals with CDK5 (Homo sapiens, UniProt Q00535). The method in brief:
(§1)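 KINOMEscan selectivity screen; >400 human kinases; compound at 1 µM, single concentration.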

The target in experiment [2] is T1, JAK2(JH1domain-catalytic) (Homo sapiens, UniProt O60674).
T1 construct: JH1domain-catalytic
T1 sequence (O60674 whole entry): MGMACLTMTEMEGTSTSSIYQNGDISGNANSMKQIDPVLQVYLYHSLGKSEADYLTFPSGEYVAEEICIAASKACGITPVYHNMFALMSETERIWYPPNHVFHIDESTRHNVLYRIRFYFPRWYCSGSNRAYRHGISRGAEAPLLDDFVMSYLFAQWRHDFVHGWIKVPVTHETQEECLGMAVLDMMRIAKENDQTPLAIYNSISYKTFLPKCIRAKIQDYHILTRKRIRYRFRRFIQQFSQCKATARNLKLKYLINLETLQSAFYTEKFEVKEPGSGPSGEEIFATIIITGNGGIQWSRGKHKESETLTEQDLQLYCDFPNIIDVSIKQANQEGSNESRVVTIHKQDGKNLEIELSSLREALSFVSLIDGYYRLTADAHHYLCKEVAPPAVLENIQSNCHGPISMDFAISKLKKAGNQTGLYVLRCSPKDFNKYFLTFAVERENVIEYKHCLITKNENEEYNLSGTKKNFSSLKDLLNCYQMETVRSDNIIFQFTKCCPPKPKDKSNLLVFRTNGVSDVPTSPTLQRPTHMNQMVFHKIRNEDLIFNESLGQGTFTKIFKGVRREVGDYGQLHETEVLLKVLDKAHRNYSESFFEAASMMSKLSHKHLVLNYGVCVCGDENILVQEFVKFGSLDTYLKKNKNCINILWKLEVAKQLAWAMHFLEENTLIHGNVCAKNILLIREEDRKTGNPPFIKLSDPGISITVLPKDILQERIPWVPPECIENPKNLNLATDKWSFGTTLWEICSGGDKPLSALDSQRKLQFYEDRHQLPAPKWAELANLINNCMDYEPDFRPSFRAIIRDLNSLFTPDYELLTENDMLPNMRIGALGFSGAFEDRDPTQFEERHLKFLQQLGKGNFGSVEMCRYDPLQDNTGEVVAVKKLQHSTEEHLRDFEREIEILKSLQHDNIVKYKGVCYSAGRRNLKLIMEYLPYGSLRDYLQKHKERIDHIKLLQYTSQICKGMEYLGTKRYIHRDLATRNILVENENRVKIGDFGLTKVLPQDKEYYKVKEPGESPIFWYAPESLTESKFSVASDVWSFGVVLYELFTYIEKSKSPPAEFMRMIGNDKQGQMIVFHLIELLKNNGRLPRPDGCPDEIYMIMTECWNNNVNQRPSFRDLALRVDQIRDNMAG
The method in brief: as §1

For experiment [3], the target named is TTK (Homo sapiens, UniProt P33981). The gist of the method: as §1
In experiment [4] the target is PIK3CA(I800L) (Homo sapiens, UniProt P42336, I800L). The gist of the method: as §1
Chain of PIK3CA(I800L) (P42336 whole entry I800L): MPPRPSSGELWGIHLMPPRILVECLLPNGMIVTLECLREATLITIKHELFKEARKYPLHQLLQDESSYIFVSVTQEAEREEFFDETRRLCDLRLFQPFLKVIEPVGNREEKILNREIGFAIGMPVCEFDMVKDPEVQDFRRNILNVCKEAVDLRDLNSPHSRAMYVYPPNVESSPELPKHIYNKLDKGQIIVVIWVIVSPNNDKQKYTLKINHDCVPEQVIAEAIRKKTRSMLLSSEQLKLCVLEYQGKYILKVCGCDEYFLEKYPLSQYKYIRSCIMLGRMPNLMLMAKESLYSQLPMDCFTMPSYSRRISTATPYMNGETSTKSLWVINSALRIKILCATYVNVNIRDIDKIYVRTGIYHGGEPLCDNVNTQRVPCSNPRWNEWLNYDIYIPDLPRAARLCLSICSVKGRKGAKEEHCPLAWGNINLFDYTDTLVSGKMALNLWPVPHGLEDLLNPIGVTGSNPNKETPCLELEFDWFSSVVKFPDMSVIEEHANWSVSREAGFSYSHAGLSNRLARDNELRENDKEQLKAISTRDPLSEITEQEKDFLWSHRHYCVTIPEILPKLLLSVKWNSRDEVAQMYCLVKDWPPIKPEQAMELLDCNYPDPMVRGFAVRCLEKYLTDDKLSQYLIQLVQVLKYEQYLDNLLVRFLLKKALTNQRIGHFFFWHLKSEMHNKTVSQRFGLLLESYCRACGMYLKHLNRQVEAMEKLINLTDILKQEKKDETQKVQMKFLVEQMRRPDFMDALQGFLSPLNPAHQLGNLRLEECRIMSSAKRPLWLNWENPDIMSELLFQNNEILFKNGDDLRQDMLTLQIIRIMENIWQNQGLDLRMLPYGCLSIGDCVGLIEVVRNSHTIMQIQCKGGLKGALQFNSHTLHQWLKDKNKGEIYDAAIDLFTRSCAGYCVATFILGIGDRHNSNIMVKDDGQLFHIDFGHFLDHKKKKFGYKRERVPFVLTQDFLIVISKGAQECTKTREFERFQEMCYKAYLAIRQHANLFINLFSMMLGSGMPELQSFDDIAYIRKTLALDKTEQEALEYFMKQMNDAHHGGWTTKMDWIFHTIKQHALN
For experiment [5], the target named is T2, MLK2 (Homo sapiens, UniProt Q02779).
T2 construct: gene MAP3K10
The gist of the method: as §1

Experiment [6] has as its target ACVR1 (Homo sapiens, UniProt Q04771). The method in brief:
as §1

The target in experiment [7] is AURKB (Homo sapiens, UniProt Q96GD4). The method in brief: as §1
Experiment [8] has as its target T3, ABL1(Q252H)-nonphosphorylated (Homo sapiens, UniProt P00519, Q252H).
T3 construct: nonphosphorylated
The gist of the method:
as §1

Experiment [9] concerns the target PAK6 (Homo sapiens, UniProt Q9NQU5). The gist of the method: as §1
Experiment [10] addresses ZAP70 (Homo sapiens, UniProt P43403). The method in brief: as §1
Experiment [11] addresses GRK3 (Homo sapiens, UniProt P35626). The method in brief:
as §1

The target in experiment [12] is T4, MINK (Homo sapiens, UniProt Q8N4C8).
T4 construct: gene MINK1
The method in brief: as §1

Experiment [13] deals with BLK (Homo sapiens, UniProt P51451). The method in brief: as §1
For experiment [14], the target named is PIK3CA(H1047L) (Homo sapiens, UniProt P42336, H1047L). The method in brief:
as §1

In experiment [15] the target is T5, ABL1(H396P)-phosphorylated (Homo sapiens, UniProt P00519, H396P).
T5 construct: phosphorylated
The gist of the method:
as §1

Experiment [16] concerns the target PRKCI (Homo sapiens, UniProt P41743). The method in brief: as §1
For experiment [17], the target named is T6, CDK4-cyclinD1 (Homo sapiens, UniProt P11802).
T6 construct: cyclinD1
The method in brief:
as §1

Experiment [18] addresses T7, IKK-alpha (Homo sapiens, UniProt O15111).
T7 construct: gene CHUK
The method in brief:
as §1

Experiment [19] addresses T8, YES (Homo sapiens, UniProt P07947).
T8 construct: gene YES1
The method in brief:
as §1

The target in experiment [20] is PHKG2 (Homo sapiens, UniProt P15735). The gist of the method: as §1
Chain of PHKG2 (P15735 whole entry): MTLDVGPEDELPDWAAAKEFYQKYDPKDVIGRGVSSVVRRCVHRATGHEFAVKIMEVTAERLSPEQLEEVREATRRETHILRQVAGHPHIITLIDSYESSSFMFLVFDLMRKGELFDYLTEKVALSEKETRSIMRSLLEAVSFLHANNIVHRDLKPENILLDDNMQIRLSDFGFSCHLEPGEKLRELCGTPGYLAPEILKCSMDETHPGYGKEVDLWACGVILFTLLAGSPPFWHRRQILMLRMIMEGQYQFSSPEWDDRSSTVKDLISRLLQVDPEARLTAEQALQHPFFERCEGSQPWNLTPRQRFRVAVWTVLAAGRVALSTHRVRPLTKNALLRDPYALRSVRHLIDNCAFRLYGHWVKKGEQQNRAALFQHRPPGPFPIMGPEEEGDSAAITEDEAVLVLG
Experiment [21] concerns the target WNK4 (Homo sapiens, UniProt Q96J92). The method in brief:
as §1

Experiment [22] concerns the target T9, PFTK1 (Homo sapiens, UniProt O94921).
T9 construct: gene CDK14
The method in brief: as §1

The target in experiment [23] is EPHA6 (Homo sapiens, UniProt Q9UF33). The method in brief:
as §1

The target in experiment [24] is T10, MLCK (Homo sapiens, UniProt Q32MK0).
T10 construct: gene MYLK3
T10 sequence (Q32MK0 whole entry): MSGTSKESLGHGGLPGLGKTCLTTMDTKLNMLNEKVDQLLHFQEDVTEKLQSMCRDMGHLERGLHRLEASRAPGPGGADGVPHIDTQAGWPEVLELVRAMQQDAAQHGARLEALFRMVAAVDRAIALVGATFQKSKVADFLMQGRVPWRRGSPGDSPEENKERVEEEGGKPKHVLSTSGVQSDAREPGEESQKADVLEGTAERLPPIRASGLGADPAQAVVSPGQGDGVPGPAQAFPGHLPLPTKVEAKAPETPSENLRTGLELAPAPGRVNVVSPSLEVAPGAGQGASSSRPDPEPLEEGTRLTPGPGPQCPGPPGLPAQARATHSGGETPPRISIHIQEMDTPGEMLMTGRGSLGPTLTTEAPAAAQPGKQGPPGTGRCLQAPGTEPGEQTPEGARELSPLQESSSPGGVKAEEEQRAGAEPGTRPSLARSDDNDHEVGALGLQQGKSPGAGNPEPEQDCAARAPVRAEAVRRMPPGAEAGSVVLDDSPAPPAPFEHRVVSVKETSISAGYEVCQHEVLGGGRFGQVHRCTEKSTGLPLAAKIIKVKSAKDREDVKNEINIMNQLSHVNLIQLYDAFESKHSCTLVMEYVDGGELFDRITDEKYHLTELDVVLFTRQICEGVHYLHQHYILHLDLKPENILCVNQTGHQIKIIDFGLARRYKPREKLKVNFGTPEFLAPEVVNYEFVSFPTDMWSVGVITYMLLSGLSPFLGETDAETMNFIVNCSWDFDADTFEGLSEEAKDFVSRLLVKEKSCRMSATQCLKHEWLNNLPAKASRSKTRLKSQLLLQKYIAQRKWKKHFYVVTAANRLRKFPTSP
The gist of the method: as §1

In article PMC7180948, “New Insights into 4-Anilinoquinazolines as Inhibitors of Cardiac Troponin I–Interacting Kinase (TNNi3K)” (Molecules, 2020) one finds inhibition data, which are given here for one molecule.

Chain of ACVR1 (Q04771 whole entry): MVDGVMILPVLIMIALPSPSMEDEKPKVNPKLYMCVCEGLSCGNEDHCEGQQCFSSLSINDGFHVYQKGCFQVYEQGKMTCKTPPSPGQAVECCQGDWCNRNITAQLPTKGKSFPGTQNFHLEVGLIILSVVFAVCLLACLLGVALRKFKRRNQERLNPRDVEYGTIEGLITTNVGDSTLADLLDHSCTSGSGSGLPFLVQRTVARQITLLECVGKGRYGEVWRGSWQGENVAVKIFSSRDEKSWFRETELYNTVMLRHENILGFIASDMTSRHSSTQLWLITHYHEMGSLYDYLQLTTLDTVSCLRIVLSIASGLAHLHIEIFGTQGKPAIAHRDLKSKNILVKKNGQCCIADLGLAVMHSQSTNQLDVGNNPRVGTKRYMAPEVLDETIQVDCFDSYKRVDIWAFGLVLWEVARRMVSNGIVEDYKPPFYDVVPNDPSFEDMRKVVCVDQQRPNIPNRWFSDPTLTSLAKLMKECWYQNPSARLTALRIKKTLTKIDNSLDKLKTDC
Chain of PRKCI (P41743 whole entry): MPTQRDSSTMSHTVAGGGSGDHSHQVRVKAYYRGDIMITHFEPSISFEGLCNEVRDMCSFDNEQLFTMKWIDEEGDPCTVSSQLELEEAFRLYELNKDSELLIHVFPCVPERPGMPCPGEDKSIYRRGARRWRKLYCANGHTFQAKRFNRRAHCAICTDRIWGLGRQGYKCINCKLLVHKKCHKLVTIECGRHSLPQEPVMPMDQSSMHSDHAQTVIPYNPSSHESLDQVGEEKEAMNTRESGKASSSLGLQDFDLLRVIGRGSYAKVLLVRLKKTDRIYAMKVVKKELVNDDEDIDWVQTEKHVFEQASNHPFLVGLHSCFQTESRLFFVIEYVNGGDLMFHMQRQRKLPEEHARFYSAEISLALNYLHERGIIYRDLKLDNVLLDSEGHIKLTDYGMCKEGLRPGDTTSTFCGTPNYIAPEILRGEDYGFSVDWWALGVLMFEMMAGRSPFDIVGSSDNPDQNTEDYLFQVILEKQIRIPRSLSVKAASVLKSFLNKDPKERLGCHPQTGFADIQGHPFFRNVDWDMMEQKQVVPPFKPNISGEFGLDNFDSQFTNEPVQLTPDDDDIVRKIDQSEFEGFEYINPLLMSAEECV
Chain of CDK5 (Q00535 whole entry): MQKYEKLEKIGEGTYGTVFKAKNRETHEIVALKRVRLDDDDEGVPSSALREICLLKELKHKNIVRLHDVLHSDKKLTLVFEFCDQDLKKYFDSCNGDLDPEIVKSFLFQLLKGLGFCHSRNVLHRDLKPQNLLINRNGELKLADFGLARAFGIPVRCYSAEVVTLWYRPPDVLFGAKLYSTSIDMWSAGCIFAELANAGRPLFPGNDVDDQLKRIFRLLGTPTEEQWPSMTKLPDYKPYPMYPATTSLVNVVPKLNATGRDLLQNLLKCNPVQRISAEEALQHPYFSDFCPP
Chain of PIK3CA(H1047L) (P42336 whole entry H1047L): as the sequence (P42336 whole entry I800L) above, with L800I, H1047L counted along it

In the case of `CNS(=O)(=O)c1ccc(N(C)C)c(Nc2ncnc3cc(OC)c(OC)cc23)c1` [compound 7, 3-((6,7-dimethoxyquinazolin-4-yl)amino)-4-(dimethylamino)-N-methylbenzenesulfonamide], the inhibition (usually the relative decrease from the control value, in per cent) at 1 µM in [1] worked out at 0%; in experiment [2], 9%; in experiment [3] it was 7%; in [4], 56%; in experiment [5], 15%; in [6], 0%. Moreover, the inhibition at 1 µM was 0% in experiment [7]; 50% in experiment [8]; 7% in experiment [9]; 53% in experiment [10]; 38% in experiment [11]; 18% in [12]. Moreover, the inhibition at 1 µM was determined as 29% in [13]; 0% in experiment [14]; 34% in experiment [15]; 5% in experiment [16]; 20% in experiment [17]; 68% in [18]. In addition, the inhibition at 1 µM in experiment [19], in experiment [20], in experiment [21], in experiment [22], in [23] and in [24] was 0% throughout.
